From publication PMC10530652 (BME Frontiers, 2021)

Legend:
MMP-9 = biological target: T1, MMP-9 (Homo sapiens, UniProt P14780); assay: In vitro enzymatic validation of FIB One with recombinant MMP-9 (plate reader); assay type: biochemical; conditions: marimastat 20 μM, enzyme pre-incubated 30 min at 37°C, FIB One 1 μM, MMP 30 nM
T1 construct: recombinant MMPs (Enzo Life Sciences) (active domains of MMP-1, MMP-2, MMP-3, MMP-7, MMP-8, MMP-9, MMP-10, MMP-11, MMP-12, and MMP-13); purchased Enzo Life Sciences
T1 sequence (P14780 107-444 limits assumed): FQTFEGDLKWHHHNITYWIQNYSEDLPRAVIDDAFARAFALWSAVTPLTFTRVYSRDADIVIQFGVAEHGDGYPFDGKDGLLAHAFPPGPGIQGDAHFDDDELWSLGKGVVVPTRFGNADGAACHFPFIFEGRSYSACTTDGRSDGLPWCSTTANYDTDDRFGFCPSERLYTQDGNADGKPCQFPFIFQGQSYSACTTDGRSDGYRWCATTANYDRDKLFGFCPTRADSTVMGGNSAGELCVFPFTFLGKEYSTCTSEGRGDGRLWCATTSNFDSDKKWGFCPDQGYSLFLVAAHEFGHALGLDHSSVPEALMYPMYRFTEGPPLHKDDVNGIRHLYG
Method: (§1) To determine the enzymatic specificity of FIB One, the probe was incubated at a concentration of 1 μM (unless otherwise stated) with the recombinant MMPs (Enzo Life Sciences) (active domains of MMP-1, MMP-2, MMP-3, MMP-7, MMP-8, MMP-9, MMP-10, MMP-11, MMP-12, and MMP-13, all at 30 nM), thrombin (Sigma Aldrich) (5 U/mL), factor Xa (Sigma Aldrich) (500 nM), plasmin (Sigma Aldrich) (30 nM), and human neutrophil elastase (30 nM). Where appropriate, enzymes were incubated with specific inhibitors for 30 min at 37°C prior to addition of FIB One. […] Enzyme free reactions served as a control. Enzymatic reactions were performed in MMP buffer (10 mM CaCl2, 6.1 g Tris-HCl, 8.6 g NaCl per litre, pH 7.5) in a final volume of 20 μL. Reactions were performed in duplicate in 384-well plates (Life Technologies) with optically clear plate seals (Thermo Scientific) and repeated thrice (independently). Fluorescence signal was measured for up to 60 min, ex/em 485/528 nm using microplate reader (BioTek Synergy H1 multimode reader). Data were normalised to buffer alone and are presented as fold-change in signal (relative fluorescent units, RFU) compared to enzyme-free controls. Data were plotted using Prism 7 (GraphPad Software Inc., La Jolla, CA, USA).

MMP-2 = biological target: T2, MMP-2 (Homo sapiens, UniProt P08253); assay: In vitro enzymatic validation of FIB One with recombinant MMP-2 (plate reader); assay type: biochemical; conditions: marimastat 20 μM, enzyme pre-incubated 30 min at 37°C, FIB One 1 μM, MMP 30 nM
T2 construct: recombinant MMPs (Enzo Life Sciences) (active domains of MMP-1, MMP-2, MMP-3, MMP-7, MMP-8, MMP-9, MMP-10, MMP-11, MMP-12, and MMP-13); purchased Enzo Life Sciences
T2 sequence (P08253 110-446 limits assumed): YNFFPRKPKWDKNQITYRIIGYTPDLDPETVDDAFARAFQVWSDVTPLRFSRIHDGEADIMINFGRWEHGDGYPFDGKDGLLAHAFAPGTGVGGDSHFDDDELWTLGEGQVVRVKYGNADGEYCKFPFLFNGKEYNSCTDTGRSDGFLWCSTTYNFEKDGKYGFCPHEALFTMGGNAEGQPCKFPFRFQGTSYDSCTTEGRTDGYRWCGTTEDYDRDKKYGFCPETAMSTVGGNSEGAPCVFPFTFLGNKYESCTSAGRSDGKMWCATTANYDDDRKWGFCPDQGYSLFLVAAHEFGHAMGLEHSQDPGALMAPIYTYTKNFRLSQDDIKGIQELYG
Method: as §1

[1] = tested on: MMP activity in ex vivo ventilated ovine lung; assay: Ex vivo ovine lung model instilled with OPA supernatant, FCFM imaging; conditions: marimastat 100 μM with OPA supernatant, 5 μM FIB One
Method: Ovine pulmonary adenocarcinoma (OPA) tissue was homogenised using a drill homogeniser, followed by lysis in cell lysis buffer. The supernatant was collected following centrifugation at 12,000 rpm for 20 min. The samples were adjusted to 1 mg mL^-1 total protein (determined by a Pierce BCA Total Protein Assay Kit (Thermo Fisher Scientific)). Zymography (as described above) was performed to confirm MMP activity across multiple OPA samples. Recombinant MMP-9 (2 nM) and recombinant pro-MMP-9 (0.5 nM) were included in the assay as positive controls. […] Following >30 min, the segments were bronchoscopically identified and microdosed with 5 μM FIB One in 1 mL. FCFM imaging was undertaken pre- and postinstillation (Cellvizio®, Mauna Kea Technologies). This was performed by passing a FCFM fibre into the disparate bronchopulmonary segments (up to 5 passes per bronchopulmonary segment to capture a regional representation of fluorescence), recording images at 12 frames per second and imaging for up to 5 minutes. Videos were analysed as described above. Each experimental set was normalised to the control segment (segment with 1 mL 0.9% NaCl instilled) which represents intrinsic autofluorescence.

[2] = tested on: primary human lung tissue; assay: Ex vivo fibre-based (FCFM) imaging of human lung tissue with FIB One; conditions: marimastat 100 μM, FIB One 1 μM, 10 min, n=9, P=0.0215
Method: Human lung tissue samples (lung tumour and noncancerous adjacent tissue) were obtained following surgical resection and stored at -80° C until use. Processing for multiwell plate reader assay or zymography analysis was conducted as follows: 1 mm×4 mm sections were homogenised in 400 μL MMP buffer in Precellys 2.8 mm ceramic bead tubes (VWR) using a Pecellys 24 homogeniser. Homogenised tissue was adjusted to 4 mg mL^-1 protein (determined by a Pierce BCA Total Protein Assay Kit (Thermo Fisher Scientific), following the manufacturer’s instructions). Multiwell plate reader assays were performed as previously described, replacing the MMP buffer and MMP enzymes for the homogenised and protein-adjusted lung tissue.
For ex vivo imaging, human lung tissue was sliced into 1 mm×4 mm sections and placed in the wells of a 96-well plate with 100 μL of MMP buffer and 30 nM MMP-13. […] The fluorescence for each sample was calculated by determining the average fluorescence per frame for each time point. […] Five independent patient specimens were collected and analysed. RFUs collected from off-target frames (showing motion artefact or absence of any fluorescence) were omitted during analysis.

[3] = tested on: stimulated human neutrophils; assay: FIB One cleavage in supernatant from stimulated neutrophils; assay type: cell-based; conditions: coincubation with marimastat, FIB One 1 μM, 10 min
Method: Neutrophils were isolated from the blood of healthy human volunteers as previously described. The number of retrieved neutrophils was determined with NucleoCounter NC-1000 (Chemo Metec). Neutrophils were resuspended at a concentration of 20×10^6 mL^-1 in 0.9% NaCl with 0.9 mM CaCl2. Cells were incubated for 30 min at 37°C. Cells to be stimulated were subsequently activated with 5 μM calcium ionophore A23187 (Tocris Bioscience) for 30 min at 37°C. Neutrophils were harvested by centrifugation at 400 x g for 5 min. Supernatants were removed and stored. Plate reader assays were performed as described above, with the MMP buffer replaced with neutrophil supernatant. All experiments were carried out in duplicate using three independent donors (one donor per independent repeat). Data were normalised by background subtraction of intrinsic fluorescence.

[4] = supernatant from stimulated (5 μM calcium ionophore A23187) neutrophils; conditions: human, up to 10 minutes

| Molecule | inhibition of FIB One activation (MMP-9) | inhibition of FIB One activation (MMP-2) | FIB One signal in inhibitor-dosed segments [1] | inhibition of FIB One cleavage [2] | inhibition of FIB One cleavage [3] | fragment found [4] |
| --- | --- | --- | --- | --- | --- | --- |
| CNC(=O)[C@@H](NC(=O)[C@H](CC(C)C)[C@H](O)C(=O)NO)C(C)(C)C [marimastat, reference compound] | blocked | blocked | did not show an increase in FIB One signal | cleavage inhibition observed | cleavage inhibition observed | – |
| FAM-PEG2-Pro-Phe-Gly-Nle-Lys-βAla-Lys(MethylRed)-PEG2-(D)Lys-PEG2-(D)Lys | – | – | – | – | – | peak at 823 Da, 10 min |
